Measurements taken from PubChem BioAssay AID256 (DTP/NCI, 2004).
Values joined by “and” are separate entries in the source; they are usually repeats but may differ in a detail not shown here. Equal values may be shown once. Inconclusive results and toxic doses are left out. How the source made its calls: active means survival T/C of 150% or more; inactive means T/C below 125% in these data.

Tested on: CD2F1 mice, L1210 leukemia ip, survival T/C
Assay: NCI In Vivo Anticancer Drug Screen. Data for tumor model L1210 Leukemia (intraperitoneal) in CD2F1 (CDF1) mice
Settings: higher = longer survival
Summary of the method: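 Implant tumor; dose compound or vehicle; measure endpoint in both groups; report treated divided by control.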

[1] = endpoint: mean survival time, dose: 50.0 mg/kg/injection, schedule: Q01DX009 (ip), vehicle: Klucel (hydroxypropylcellulose) (HPC)
[2] = endpoint: mean survival time, dose: 100.0 mg/kg/injection, schedule: Q01DX009 (ip), vehicle: Klucel (hydroxypropylcellulose) (HPC)
[3] = endpoint: mean survival time, dose: 200.0 mg/kg/injection, schedule: Q01DX009 (ip), vehicle: Klucel (hydroxypropylcellulose) (HPC)
[4] = endpoint: mean survival time, dose: 25.0 mg/kg/injection, schedule: Q01DX009 (ip), vehicle: saline with Tween-80
[5] = endpoint: mean survival time, dose: 50.0 mg/kg/injection, schedule: Q01DX009 (ip), vehicle: saline with Tween-80
[6] = endpoint: mean survival time, dose: 100.0 mg/kg/injection, schedule: Q01DX009 (ip), vehicle: saline with Tween-80
[7] = endpoint: mean survival time, dose: 200.0 mg/kg/injection, schedule: Q01DX009 (ip), vehicle: saline with Tween-80
[8] = endpoint: mean survival time, dose: 400.0 mg/kg/injection, schedule: Q01DX009 (ip), vehicle: saline with Tween-80
[9] = endpoint: mean survival time, dose: 100.0 mg/kg/injection, schedule: Q04DX003 (ip), vehicle: saline with Tween-80
[10] = endpoint: mean survival time, dose: 200.0 mg/kg/injection, schedule: Q04DX003 (ip), vehicle: saline with Tween-80
[11] = endpoint: mean survival time, dose: 400.0 mg/kg/injection, schedule: Q04DX003 (ip), vehicle: saline with Tween-80
[12] = endpoint: mean survival time, dose: 25.0 mg/kg/injection, schedule: Q04DX002 (ip), vehicle: saline with Tween-80
[13] = endpoint: mean survival time, dose: 50.0 mg/kg/injection, schedule: Q04DX002 (ip), vehicle: saline with Tween-80
[14] = endpoint: mean survival time, dose: 100.0 mg/kg/injection, schedule: Q04DX002 (ip), vehicle: saline with Tween-80
[15] = endpoint: mean survival time, dose: 75.0 mg/kg/injection, schedule: Q01DX001 (ip), vehicle: saline

Measured: T/C

Nc1ccc(Br)cc1-c1nc(N)c2cc(Br)ccc2n1
inactive: [1] 104 % of control | endpoint: mean survival time, dose: 100.0 mg/kg/injection, schedule: Q01DX001 (ip), vehicle: Klucel (hydroxypropylcellulose) (HPC) 93 % of control | [2] 89 % of control | endpoint: mean survival time, dose: 200.0 mg/kg/injection, schedule: Q01DX001 (ip), vehicle: Klucel (hydroxypropylcellulose) (HPC) 103 % of control | [3] 100 % of control | endpoint: mean survival time, dose: 400.0 mg/kg/injection, schedule: Q01DX001 (ip), vehicle: Klucel (hydroxypropylcellulose) (HPC) 100 % of control

CCOC(=O)C1(c2ccccc2)C(=O)Oc2ccccc21 (stereo not drawn)
inactive: endpoint: mean survival time, dose: 12.5 mg/kg/injection, schedule: Q01DX009 (ip), vehicle: saline with Tween-80 98 % of control | [4] 94 % of control and 96 % of control | [5] 89 % of control and 104 % of control | [6] 89 % of control and 93 % of control | [7] 89 % of control | [8] 87 % of control and 91 % of control

Nc1nc(-c2cccc([N+](=O)[O-])c2)c(N=Nc2ccccc2Cl)s1
inactive: endpoint: mean survival time, dose: 100.0 mg/kg/injection, schedule: Q01DX001 (ip), vehicle: saline with Tween-80 89 % of control | endpoint: mean survival time, dose: 400.0 mg/kg/injection, schedule: Q01DX001 (ip), vehicle: saline with Tween-80 96 % of control

CC(=O)OC1CCC2(C)C3CCC4(C)C(O)CCC4C3CC(O)C2(O)C1 (stereo not drawn)
inactive: [9] 90 % of control | [10] 87 % of control | [11] 91 % of control

N#CCCN(CCCN1CCOCC1)C(=S)Nc1cccc(C(F)(F)F)c1
inactive: [12] 104 % of control | [13] 98 % of control | [14] 106 % of control

O=C(/C=C/c1ccc(Cl)cc1)c1ccccc1
inactive: [1] 94 % of control | [2] 102 % of control | [3] 105 % of control

CN(C)c1ccc(N=Nc2cccc(Cl)c2Cl)cc1
inactive: [4] 102 % of control | [5] 97 % of control | [6] 105 % of control | [9] 95 % of control | [10] 98 % of control | [11] 104 % of control

CCC(=O)NC1=CC(=O)c2ccccc2C1=O
inactive: [4] 101 % of control | [5] 100 % of control

O=C(O)c1c(F)c(F)c(F)c(Br)c1F
inactive: [9] 93 % of control | [10] 93 % of control

CC(CNC1CCCCC1)OC(=O)c1ccc(N)cc1 (stereo not drawn)
inactive: [15] 102 % of control

O=C1C(Sc2ccc3ccccc3c2)=C(Sc2ccc3ccccc3c2)C(=O)c2ccccc21
inactive: endpoint: mean survival time, dose: 25.0 mg/kg/injection, schedule: Q04DX003 (ip), vehicle: saline with Tween-80 94 % of control | endpoint: mean survival time, dose: 50.0 mg/kg/injection, schedule: Q04DX003 (ip), vehicle: saline with Tween-80 94 % of control

COc1ccc(C[As+](c2ccccc2)(c2ccccc2)c2ccccc2)cc1
inactive: endpoint: mean survival time, dose: 5.0 mg/kg/injection, schedule: Q01DX001 (ip), vehicle: saline 102 % of control | endpoint: mean survival time, dose: 10.0 mg/kg/injection, schedule: Q01DX001 (ip), vehicle: saline 95 % of control | endpoint: mean survival time, dose: 20.0 mg/kg/injection, schedule: Q01DX001 (ip), vehicle: saline 98 % of control | endpoint: mean survival time, dose: 40.0 mg/kg/injection, schedule: Q01DX001 (ip), vehicle: saline 100 % of control

CN(C1=CC(=O)C(=O)c2ccccc21)c1ccccc1
inactive: [15] 97 % of control | endpoint: mean survival time, dose: 150.0 mg/kg/injection, schedule: Q01DX001 (ip), vehicle: saline 95 % of control | endpoint: mean survival time, dose: 300.0 mg/kg/injection, schedule: Q01DX001 (ip), vehicle: saline 100 % of control

O=C(O)COc1ccc(Cl)cc1Cl
inactive: endpoint: mean survival time, dose: 100.0 mg/kg/injection, schedule: Q04DX003 (ip), vehicle: saline sonified 95 % of control | endpoint: mean survival time, dose: 200.0 mg/kg/injection, schedule: Q04DX003 (ip), vehicle: saline sonified 92 % of control | endpoint: mean survival time, dose: 400.0 mg/kg/injection, schedule: Q04DX003 (ip), vehicle: saline sonified 95 % of control

COc1ccc(-c2nc(C)cc3cc(OC)c(OC)cc23)cc1OC
inactive: endpoint: mean survival time, dose: 12.5 mg/kg/injection, schedule: Q01DX009 (ip), vehicle: water 94 % of control | endpoint: mean survival time, dose: 25.0 mg/kg/injection, schedule: Q01DX009 (ip), vehicle: water 94 % of control | endpoint: mean survival time, dose: 50.0 mg/kg/injection, schedule: Q01DX009 (ip), vehicle: water 91 % of control | endpoint: mean survival time, dose: 100.0 mg/kg/injection, schedule: Q01DX009 (ip), vehicle: water 89 % of control

COc1ccc(-c2nc(N)nc3c2CN(CCC(=O)O)C3=O)cc1
inactive: endpoint: mean survival time, dose: 100.0 mg/kg/injection, schedule: Q04DX003 (ip), vehicle: saline 102 % of control | endpoint: mean survival time, dose: 200.0 mg/kg/injection, schedule: Q04DX003 (ip), vehicle: saline 100 % of control | endpoint: mean survival time, dose: 400.0 mg/kg/injection, schedule: Q04DX003 (ip), vehicle: saline 102 % of control

O=C(Nc1ccn(C2CC(O)C(CO)O2)c(=O)n1)c1ccccc1 (stereo not drawn)
inactive: endpoint: median survival time, dose: 12.5 mg/kg/injection, schedule: Q01DX005 (ip), vehicle: saline with Tween-80 100 % of control | endpoint: median survival time, dose: 25.0 mg/kg/injection, schedule: Q01DX005 (ip), vehicle: saline with Tween-80 104 % of control | endpoint: median survival time, dose: 50.0 mg/kg/injection, schedule: Q01DX005 (ip), vehicle: saline with Tween-80 103 % of control | endpoint: median survival time, dose: 100.0 mg/kg/injection, schedule: Q01DX005 (ip), vehicle: saline with Tween-80 98 % of control | endpoint: median survival time, dose: 200.0 mg/kg/injection, schedule: Q01DX005 (ip), vehicle: saline with Tween-80 95 % of control

CCCCCCCCCCCCCCCCOc1ccccc1NC(=O)CC(C)=O
inactive: [9] 96 % of control | [10] 94 % of control | [11] 95 % of control

CCCCCCCCNCCNCCCCCCCC
inactive: endpoint: mean survival time, dose: 3.75 mg/kg/injection, schedule: Q01DX009 (ip), vehicle: Klucel (hydroxypropylcellulose) (HPC) 95 % of control | endpoint: mean survival time, dose: 7.5 mg/kg/injection, schedule: Q01DX009 (ip), vehicle: Klucel (hydroxypropylcellulose) (HPC) 95 % of control | endpoint: mean survival time, dose: 15.0 mg/kg/injection, schedule: Q01DX009 (ip), vehicle: Klucel (hydroxypropylcellulose) (HPC) 87 % of control

O=C1C2C3CC4C2C(Br)C2C1C3C42 (stereo not drawn)
inactive: [12] 104 % of control | [13] 100 % of control

Cc1ccc(S(=O)(=O)N/N=C/c2ccc(C(=O)O)cc2)cc1
inactive: endpoint: mean survival time, dose: 12.5 mg/kg/injection, schedule: Q04DX003 (ip), vehicle: other 101 % of control | endpoint: mean survival time, dose: 25.0 mg/kg/injection, schedule: Q04DX003 (ip), vehicle: other 97 % of control | endpoint: mean survival time, dose: 50.0 mg/kg/injection, schedule: Q04DX003 (ip), vehicle: other 106 % of control | endpoint: mean survival time, dose: 100.0 mg/kg/injection, schedule: Q04DX003 (ip), vehicle: other 95 % of control | endpoint: mean survival time, dose: 200.0 mg/kg/injection, schedule: Q04DX003 (ip), vehicle: other 95 % of control | endpoint: mean survival time, dose: 400.0 mg/kg/injection, schedule: Q04DX003 (ip), vehicle: other 106 % of control

CCNC(=O)Nc1nc2ccccc2s1
inactive: [14] 103 % of control | endpoint: mean survival time, dose: 200.0 mg/kg/injection, schedule: Q04DX002 (ip), vehicle: saline with Tween-80 103 % of control | endpoint: mean survival time, dose: 400.0 mg/kg/injection, schedule: Q04DX002 (ip), vehicle: saline with Tween-80 92 % of control

Clc1ccc2scc3c4ccccc4nc-3c2c1
inactive: endpoint: mean survival time, dose: 25.0 mg/kg/injection, schedule: Q01DX009 (ip), vehicle: saline 104 % of control | endpoint: mean survival time, dose: 50.0 mg/kg/injection, schedule: Q01DX009 (ip), vehicle: saline 101 % of control

CC(C)(C)CC(C)(C)c1ccc(OCCOc2ccccc2NC(=O)c2ccc3ccccc3c2O)cc1
inactive: [6] 94 % of control | [7] 93 % of control | [8] 94 % of control

CC(=N)c1ccc(C)cc1
inactive: endpoint: mean survival time, dose: 6.25 mg/kg/injection, schedule: Q01DX001 (ip), vehicle: saline sonified 96 % of control | endpoint: mean survival time, dose: 12.5 mg/kg/injection, schedule: Q01DX001 (ip), vehicle: saline sonified 96 % of control | endpoint: mean survival time, dose: 25.0 mg/kg/injection, schedule: Q01DX001 (ip), vehicle: saline sonified 96 % of control

c1cc(C[N+]23CN4CN(CN(C4)C2)C3)cs1
inactive: [9] 91 % of control

COc1cc(Cc2nc(Cl)cc(Cl)n2)cc(OC)c1OC
inactive: [6] 105 % of control | [9] 95 % of control | [7] 97 % of control | [10] 93 % of control | [8] 103 % of control | [11] 97 % of control

CCCCCCCCCCCCCCCCCC(=O)CC
inactive: endpoint: mean survival time, dose: 100.0 mg/kg/injection, schedule: Q04DX002 (ip), vehicle: saline + alcohol 93 % of control | endpoint: mean survival time, dose: 200.0 mg/kg/injection, schedule: Q04DX002 (ip), vehicle: saline + alcohol 93 % of control | endpoint: mean survival time, dose: 400.0 mg/kg/injection, schedule: Q04DX002 (ip), vehicle: saline + alcohol 93 % of control
